Reference: the NIST ThermoML archive (doi:10.1016/j.fluid.2018.09.024)
± gives the expanded uncertainty stated by the source.

Experiment: activity coefficient (dimensionless); of the first substance listed, at infinite dilution; xn = mol fraction of the nth substance listed
Conditions: 101.33 kPa, Liquid, Chromatography, x1 = 0

SMILES	activity coefficient (318.15 K)	activity coefficient (328.15 K)	activity coefficient (338.15 K)	activity coefficient (348.15 K)	activity coefficient (358.15 K)	activity coefficient (368.15 K)	activity coefficient (378.15 K)
C1CCCCCCC1 [cyclooctane] + CCCCCCCCCCCC[N+](C)(C)CCOc1ccccc1.O=S(=O)([N-]S(=O)(=O)C(F)(F)F)C(F)(F)F	2.57 ± 0.17	2.61 ± 0.18	2.65 ± 0.18	2.68 ± 0.18	2.71 ± 0.18	2.75 ± 0.19	
CCCCCCCCCC [decane] + CCCCCCCCCCCC[N+](C)(C)CCOc1ccccc1.N#C[N-]C#N		9.02 ± 0.62	9.17 ± 0.63	9.31 ± 0.64	9.45 ± 0.64	9.6 ± 0.65	9.75 ± 0.67
CCCCCCCCCC [decane] + CCCCCCCCCCCC[N+](C)(C)CCOc1ccccc1.O=S(=O)([N-]S(=O)(=O)C(F)(F)F)C(F)(F)F	5.72 ± 0.39	5.8 ± 0.4	5.87 ± 0.4	5.92 ± 0.4	5.98 ± 0.41	6.03 ± 0.41	
CCOCC [diethyl ether] + CCCCCCCCCCCC[N+](C)(C)CCOc1ccccc1.N#C[N-]C#N		2.17 ± 0.15	2.22 ± 0.15	2.28 ± 0.16	2.34 ± 0.16	2.39 ± 0.16	2.44 ± 0.17
CCOCC [diethyl ether] + CCCCCCCCCCCC[N+](C)(C)CCOc1ccccc1.O=S(=O)([N-]S(=O)(=O)C(F)(F)F)C(F)(F)F	1.06 ± 0.07	1.12 ± 0.07	1.18 ± 0.08	1.24 ± 0.08	1.3 ± 0.08	1.36 ± 0.09	
CC(C)OC(C)C [diisopropyl ether] + CCCCCCCCCCCC[N+](C)(C)CCOc1ccccc1.N#C[N-]C#N		4.03 ± 0.27	4.12 ± 0.28	4.22 ± 0.29	4.29 ± 0.29	4.36 ± 0.3	4.43 ± 0.3
CC(C)OC(C)C [diisopropyl ether] + CCCCCCCCCCCC[N+](C)(C)CCOc1ccccc1.O=S(=O)([N-]S(=O)(=O)C(F)(F)F)C(F)(F)F	1.9 ± 0.13	1.97 ± 0.13	2.03 ± 0.14	2.1 ± 0.14	2.16 ± 0.15	2.22 ± 0.15	
CCCOCCC [dipropyl ether] + CCCCCCCCCCCC[N+](C)(C)CCOc1ccccc1.N#C[N-]C#N		3.36 ± 0.23	3.46 ± 0.24	3.54 ± 0.24	3.61 ± 0.25	3.68 ± 0.25	3.76 ± 0.26
CCCOCCC [dipropyl ether] + CCCCCCCCCCCC[N+](C)(C)CCOc1ccccc1.O=S(=O)([N-]S(=O)(=O)C(F)(F)F)C(F)(F)F	1.78 ± 0.12	1.85 ± 0.12	1.92 ± 0.13	1.99 ± 0.14	2.06 ± 0.14	2.13 ± 0.14	
CCO [ethanol] + CCCCCCCCCCCC[N+](C)(C)CCOc1ccccc1.N#C[N-]C#N		0.411 ± 0.034	0.421 ± 0.035	0.429 ± 0.035	0.438 ± 0.035	0.446 ± 0.036	0.453 ± 0.036
CCO [ethanol] + CCCCCCCCCCCC[N+](C)(C)CCOc1ccccc1.O=S(=O)([N-]S(=O)(=O)C(F)(F)F)C(F)(F)F	1.24 ± 0.08	1.2 ± 0.08	1.16 ± 0.07	1.12 ± 0.07	1.09 ± 0.07	1.06 ± 0.07	
CCOC(C)=O [ethyl acetate] + CCCCCCCCCCCC[N+](C)(C)CCOc1ccccc1.N#C[N-]C#N		1.2 ± 0.08	1.24 ± 0.08	1.27 ± 0.08	1.31 ± 0.09	1.34 ± 0.09	1.37 ± 0.09
CCOC(C)=O [ethyl acetate] + CCCCCCCCCCCC[N+](C)(C)CCOc1ccccc1.O=S(=O)([N-]S(=O)(=O)C(F)(F)F)C(F)(F)F	0.505 ± 0.038	0.533 ± 0.039	0.563 ± 0.04	0.592 ± 0.042	0.62 ± 0.043	0.648 ± 0.044	
CCc1ccccc1 [ethylbenzene] + CCCCCCCCCCCC[N+](C)(C)CCOc1ccccc1.N#C[N-]C#N		1.4 ± 0.09	1.45 ± 0.1	1.5 ± 0.1	1.55 ± 0.1	1.6 ± 0.11	1.64 ± 0.11
CCc1ccccc1 [ethylbenzene] + CCCCCCCCCCCC[N+](C)(C)CCOc1ccccc1.O=S(=O)([N-]S(=O)(=O)C(F)(F)F)C(F)(F)F	0.9 ± 0.057	0.948 ± 0.06	0.995 ± 0.062	1.04 ± 0.07	1.09 ± 0.07	1.13 ± 0.07	
CCCCCCC [heptane] + CCCCCCCCCCCC[N+](C)(C)CCOc1ccccc1.N#C[N-]C#N		5.99 ± 0.41	6.08 ± 0.41	6.16 ± 0.42	6.24 ± 0.43	6.33 ± 0.43	6.41 ± 0.44
CCCCCCC [heptane] + CCCCCCCCCCCC[N+](C)(C)CCOc1ccccc1.O=S(=O)([N-]S(=O)(=O)C(F)(F)F)C(F)(F)F	3.44 ± 0.23	3.52 ± 0.24	3.6 ± 0.25	3.68 ± 0.25	3.75 ± 0.26	3.83 ± 0.26	
C=CCCCC [hex-1-ene] + CCCCCCCCCCCC[N+](C)(C)CCOc1ccccc1.N#C[N-]C#N		3.59 ± 0.24	3.68 ± 0.25	3.76 ± 0.26	3.84 ± 0.26	3.9 ± 0.27	3.99 ± 0.27
C=CCCCC [hex-1-ene] + CCCCCCCCCCCC[N+](C)(C)CCOc1ccccc1.O=S(=O)([N-]S(=O)(=O)C(F)(F)F)C(F)(F)F	2.19 ± 0.15	2.24 ± 0.15	2.28 ± 0.16	2.32 ± 0.16	2.36 ± 0.16	2.41 ± 0.16	
CCCCCC [hexane] + CCCCCCCCCCCC[N+](C)(C)CCOc1ccccc1.N#C[N-]C#N		5.12 ± 0.35	5.22 ± 0.36	5.3 ± 0.36	5.41 ± 0.37	5.53 ± 0.38	5.6 ± 0.38
CCCCCC [hexane] + CCCCCCCCCCCC[N+](C)(C)CCOc1ccccc1.O=S(=O)([N-]S(=O)(=O)C(F)(F)F)C(F)(F)F	2.91 ± 0.2	2.99 ± 0.2	3.06 ± 0.21	3.15 ± 0.21	3.21 ± 0.22	3.28 ± 0.22	
CC(C)c1ccccc1 [isopropylbenzene] + CCCCCCCCCCCC[N+](C)(C)CCOc1ccccc1.N#C[N-]C#N		1.82 ± 0.12	1.87 ± 0.13	1.94 ± 0.13	2 ± 0.14	2.05 ± 0.14	2.11 ± 0.14
CC(C)c1ccccc1 [isopropylbenzene] + CCCCCCCCCCCC[N+](C)(C)CCOc1ccccc1.O=S(=O)([N-]S(=O)(=O)C(F)(F)F)C(F)(F)F	1.14 ± 0.07	1.19 ± 0.08	1.24 ± 0.08	1.29 ± 0.08	1.34 ± 0.09	1.39 ± 0.09	
